This note sets out measurements from patent US20260250290A1 (BRISTOL-MYERS SQUIBB COMPANY, priority 2023, published 2026).

Counter-ions that a name gives are not always drawn.

In this test the target is T1, full length SGK1 (Homo sapiens, UniProt O00141).
T1 construct: 125 μM full length SGK1 (Life Technologies Part #PR7358A); purchased Life Technologies PR7358A
T1 sequence (O00141 1-431): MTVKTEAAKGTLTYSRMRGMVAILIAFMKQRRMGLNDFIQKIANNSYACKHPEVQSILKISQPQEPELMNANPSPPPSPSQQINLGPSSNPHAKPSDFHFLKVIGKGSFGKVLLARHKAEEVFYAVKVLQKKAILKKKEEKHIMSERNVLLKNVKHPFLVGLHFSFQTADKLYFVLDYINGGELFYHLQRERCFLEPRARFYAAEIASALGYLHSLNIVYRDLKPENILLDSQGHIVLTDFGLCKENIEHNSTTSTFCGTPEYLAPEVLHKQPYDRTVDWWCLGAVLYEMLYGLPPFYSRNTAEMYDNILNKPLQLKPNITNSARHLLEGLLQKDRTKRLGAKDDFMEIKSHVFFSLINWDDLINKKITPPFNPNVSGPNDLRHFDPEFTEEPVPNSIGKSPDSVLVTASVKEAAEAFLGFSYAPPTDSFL
Kind of test: SGK1 inhibition Assay A (Caliper LabChip electrophoretic separation of fluorescent peptide substrate and phosphorylated product). To be noted: Assay A; 20 μM ATP, 40 min incubation; read-out: SGK1 IC50. In kind it is biochemical.
In the case of `CN(C)CCOc1c(C(=O)N[C@@H]2CCCN(c3cc(-c4ccc(C#N)nc4)n4ncnc(N)c34)C2)sc2ccncc12` [Example 666, (R)—N-(1-(4-amino-7-(6-cyanopyridin-3-yl)pyrrolo[2,1-f][1,2,4]triazin-5-yl)piperidin-3-yl)-3-(2-(dimethylamino)ethoxy)thieno[3,2-c]pyridine-2-carboxamide], the IC50 was found to be 11 nM.

Regarding `CC(=O)N1CC=C(c2cc(N3CCC[C@@H](NC(=O)c4cncc(N5CCN(C)CC5)n4)C3)c3c(N)ncnn23)C1` [Example 736], the IC50 amounted to 48 nM.

With `N#CC1(C(=O)N2CC=C(c3cc(N4CCC[C@@H](NC(=O)c5sc(Cl)cc5OCCN5CCOCC5)C4)c4c(N)ncnn34)C2)CC1` [Example 264, (R)-N-(1-(4-amino-7-(1-(1-cyanocyclopropane-1-carbonyl)-2,5-dihydro-1H-pyrrol-3-yl)pyrrolo[2,1-f][1,2,4]triazin-5-yl)piperidin-3-yl)-5-chloro-3-(2-morpholinoethoxy)thiophene-2-carboxamide], the concentration for half-maximal inhibition (IC50) stood at 12 nM.

On to `Nc1ncnn2c(-c3ccnc(C(F)F)c3)cc(N3CCC[C@@H](NC(=O)c4sc(Cl)cc4OCCN4CC(F)(F)C4)C3)c12` [Example 297], for which the IC50 came to 19 nM.

`CC(=O)N1CC=C(c2cc(N3CCC[C@@H](NC(=O)c4sc(Cl)cc4OC4CCN(C)CC4F)C3)c3c(N)ncnn23)C1` (single isomer, unassigned) [Example 600]: the IC50 was 6 nM.

As to `CS(=O)(=O)c1ccc(-c2cc(N3CCC[C@@H](NC(=O)c4ccc(Cl)s4)C3)c3c(N)ncnn23)cn1` [Example 226, N-[(3R)-1-[4-amino-7-(6-methanesulfonylpyridin-3-yl)pyrrolo[2,1-f][1,2,4]triazin-5-yl]piperidin-3-yl]-5-chlorothiophene-2-carboxamide], the 50% inhibitory concentration (IC50) amounted to 2 nM.

With `NC(=O)c1ccc(-c2cc(N3CCC[C@@H](NC(=O)c4sc(Cl)cc4OC4CC5(CNC5)C4)C3)c3c(N)ncnn23)cc1F` [Example 590, (R)-3-((2-azaspiro[3.3]heptan-6-yl)oxy)-N-(1-(4-amino-7-(4-carbamoyl-3-fluorophenyl)pyrrolo[2,1-f][1,2,4]triazin-5-yl)piperidin-3-yl)-5-chlorothiophene-2-carboxamide], the IC50 came to 2 nM.

As to `COC(=O)NCCOc1cc(C(F)F)sc1C(=O)N[C@@H]1CCCN(c2cc(C3=CCN(C(=O)OC)C3)n3ncnc(N)c23)C1` [Example 428, Methyl (R)-3-(4-amino-5-(3-(5-(difluoromethyl)-3-(2-((methoxycarbonyl)amino)ethoxy)thiophene-2-carboxamido)piperidin-1-yl)pyrrolo[2,1-f][1,2,4]triazin-7-yl)-2,5-dihydro-1H-pyrrole-1-carboxylate], the IC50 turned out to be 21 nM.

With `Nc1ncnn2c(C#Cc3ccncc3)cc(N3CCC[C@@H](NC(=O)c4ccc(Cl)s4)C3)c12` [Example 695, (R)—N-(1-(4-amino-7-(pyridin-4-ylethynyl)pyrrolo[2,1-f][1,2,4]triazin-5-yl)piperidin-3-yl)-5-chlorothiophene-2-carboxamide, TFA salt], the IC50 was determined as 242 nM.

With `Cc1cc(COCCN2CCOCC2)c(C(=O)N[C@@H]2CCCN(c3cc(-c4ccnc(F)c4)n4ncnc(N)c34)C2)s1` [Example 201, (R)—N-(1-(4-amino-7-(2-fluoropyridin-4-yl)pyrrolo[2,1-f][1,2,4]triazin-5-yl)piperidin-3-yl)-5-methyl-3-((2-morpholinoethoxy)methyl)thiophene-2-carboxamide, 2 TFA], the IC50 came to 3 nM.

Turning to `CC(C)(O)c1ccc(-c2cc(N3CCC[C@@H](NC(=O)c4ccc(Cl)s4)C3)c3c(N)ncnn23)cc1` [Example 218, (R)-N-(1-(4-amino-7-(4-(2-hydroxypropan-2-yl)phenyl)pyrrolo[2,1-f][1,2,4]triazin-5-yl)piperidin-3-yl)-5-chlorothiophene-2-carboxamide, TFA], the IC50 is 233 nM.

On to `COC(=O)N1CC=C(c2cc(N3CCC[C@@H](NC(=O)c4sc5ccccc5c4OC4CCN(C)CC4)C3)c3c(N)ncnn23)C1` [Example 658, methyl (R)-3-(4-amino-5-(3-(3-((1-methylpiperidin-4-yl)oxy)benzo[b]thiophene-2-carboxamido)piperidin-1-yl)pyrrolo[2,1-f][1,2,4]triazin-7-yl)-2,5-dihydro-1H-pyrrole-1-carboxylate], for which the IC50 amounted to 18 nM.

With `COCC(=O)N1CC=C(c2cc(N3CCC[C@@H](NC(=O)c4sc(Cl)cc4OCCN4CCOCC4)C3)c3c(N)ncnn23)C1` [Example 259, (R)—N-(1-(4-amino-7-(1-(2-methoxyacetyl)-2,5-dihydro-1H-pyrrol-3-yl)pyrrolo[2,1-f][1,2,4]triazin-5-yl)piperidin-3-yl)-5-chloro-3-(2-morpholinoethoxy)thiophene-2-carboxamide], the IC50 came to 28 nM.

With “tert-butyl (R)-3- ((2-((1-(4-amino- 7-(6-cyanopyridin-3- yl)pyrrolo[2,1-f] [1,2,4]triazin-5- yl)piperidin-3- yl)carbamoyl) benzo[b]thiophen- 3-yl)oxy)azetidine- 1-carboxylate [Example 672]”, the IC50 came to 65 nM.

Take `CN1CCN(CCOc2cc(Cl)sc2C(=O)N[C@@H]2CCCN(c3cc(-c4ccnc(F)c4)n4ncnc(N)c34)C2)CC1` [Example 167, (R)—N-(1-(4-amino-7-(2-fluoropyridin-4-yl)pyrrolo[2,1-f][1,2,4]triazin-5-yl)piperidin-3-yl)-5-chloro-3-(2-(4-methylpiperazin-1-yl)ethoxy)thiophene-2-carboxamide, 2 TFA]: the IC50 stood at 1 nM.

Regarding `CC(=O)N1CC=C(c2cc(N3CCC[C@@H](NC(=O)c4sc(Cl)cc4OCCNCC(F)F)C3)c3c(N)ncnn23)C1` [Example 301, (R)-N-(1-(7-(1-acetyl-2,5-dihydro-1H-pyrrol-3-yl)-4-aminopyrrolo[2,1-f][1,2,4]triazin-5-yl)piperidin-3-yl)-5-chloro-3-(2-((2,2-difluoroethyl)amino)ethoxy)thiophene-2-carboxamide], the IC50 came out at 14 nM.

As to `Cc1ccc(C(=O)N[C@@H]2CCCN(c3c(C#N)c(-c4ccc(S(C)(=O)=O)cc4)n4ncnc(N)c34)C2)s1` [Example 197, N-[(3R)-1-[4-amino-6-cyano-7-(4-methanesulfonylphenyl)pyrrolo[2,1-f][1,2,4]triazin-5-yl]piperidin-3-yl]-5-methylthiophene-2-carboxamide], the IC50 turned out to be 30 nM.

Turning to `CC(C)Cn1cc(-c2cc(N3CCC[C@@H](NC(=O)c4ccc(C(F)F)s4)C3)c3c(N)ncnn23)ccc1=O` [Example 510, (R)-N-(1-(4-amino-7-(1-isobutyl-6-oxo-1,6-dihydropyridin-3-yl)pyrrolo[2,1-f][1,2,4]triazin-5-yl)piperidin-3-yl)-5-(difluoromethyl)thiophene-2-carboxamide], the 50% inhibitory concentration (IC50) was 44 nM.

Take `CS(=O)(=O)c1ccc(-c2cc(N3CCC[C@@H](NC(=O)c4cccc(Cl)c4)C3)c3c(N)ncnn23)cc1` [Example 21, (R)-N-(1-(4-amino-7-(4-(methylsulfonyl)phenyl)pyrrolo[2,1-f][1,2,4]triazin-5-yl)piperidin-3-yl)-3-chlorobenzamide]: the IC50 stood at 13 nM.

In the case of `CN(C)CCOc1cc(C(F)F)sc1C(=O)N[C@@H]1CCCN(c2cc(-c3ccc(C(N)=O)c(F)c3)n3ncnc(N)c23)C1` [Example 302, (R)—N-(1-(4-amino-7-(4-carbamoyl-3-fluorophenyl)pyrrolo[2,1-f][1,2,4]triazin-5-yl)piperidin-3-yl)-5-(difluoromethyl)-3-(2-(dimethylamino)ethoxy)thiophene-2-carboxamide], the IC50 amounted to 4 nM.

Take `Nc1ncnn2c(-c3ccc4cnoc4c3)cc(N3CCC[C@@H](NC(=O)c4ccc(Cl)s4)C3)c12` [Example 871, (R)—N-(1-(4-amino-7-(benzo[d]isoxazol-6-yl)pyrrolo[2,1-f][1,2,4]triazin-5-yl)piperidin-3-yl)-5-chlorothiophene-2-carboxamide]: the IC50 was determined as 6 nM.

On to `CS(=O)(=O)c1ccc(-c2c(Cl)c(N3CCC[C@@H](NC(=O)c4ccncc4)C3)c3c(N)ncnn23)cc1` [Example 196, N-[(3R)-1-[4-amino-6-chloro-7-(4-methanesulfonylphenyl)pyrrolo[2,1-f][1,2,4]triazin-5-yl]piperidin-3-yl]pyridine-4-carboxamide], for which the IC50 came out at 222 nM.

Take `CS(=O)(=O)c1ccc(-c2cc(N3CCC[C@@H](NC(=O)c4cnn(C5CCOCC5)c4)C3)c3c(N)ncnn23)cc1` [Example 78, (R)-N-(1-(4-amino-7-(4-(methylsulfonyl)phenyl)pyrrolo[2,1-f][1,2,4]triazin-5-yl)piperidin-3-yl)-1-(tetrahydro-2H-pyran-4-yl)-1H-pyrazole-4-carboxamide]: the 50% inhibitory concentration (IC50) was 67 nM.

With `CN(C)CCOc1cc(Cl)sc1C(=O)N[C@@H]1CCCN(c2cc(-c3ccnc(C(F)F)c3)n3ncnc(N)c23)C1` [Example 340, (R)—N-(1-(4-amino-7-(2-(difluoromethyl)pyridin-4-yl)pyrrolo[2,1-f][1,2,4]triazin-5-yl)piperidin-3-yl)-5-chloro-3-(2-(dimethylamino)ethoxy)thiophene-2-carboxamide], the IC50 is 3 nM.

For `CC(=O)N1CC=C(c2cc(N3CCC[C@@H](NC(=O)C4=NN(c5ccccc5)C(=O)C4)C3)c3c(N)ncnn23)C1` [Example 459, (R)-N-(1-(7-(1-acetyl-2,5-dihydro-1H-pyrrol-3-yl)-4-aminopyrrolo[2,1-f][1,2,4]triazin-5-yl)piperidin-3-yl)-5-oxo-1-phenyl-4,5-dihydro-1H-pyrazole-3-carboxamide], the IC50 worked out at 392 nM.
